ChEMBL document CHEMBL1141814, “Chiral dihydroxylation of acronycine: absolute configuration of natural cis-1,2-dihydroxy-1,2-dihydroacronycine and cytotoxicity of (1R,2R)- and (1S,2S)-1,2-diacetoxy-1,2-dihydroacronycine” (J Nat Prod, 1999)

Each compound was assayed on L1210 (assay: Cytotoxicity against mouse L1210 cells after 48 hrs by […] assay). Settings: L1210, 48 h.
Type: functional, cell-based

Compound	IC50 [µM]
COc1cc2c(c3c1c(=O)c1ccccc1n3C)C=CC(C)(C)O2 [ACRONINE]	10.4
COc1cc2c(c3c1c(=O)c1ccccc1n3C)[C@H](OC(C)=O)[C@H](OC(C)=O)C(C)(C)O2	3.7
COc1cc2c(c3c1c(=O)c1ccccc1n3C)[C@@H](OC(C)=O)[C@@H](OC(C)=O)C(C)(C)O2	3.1
